This is an account of results in patent US11648248B1 (King Abdulaziz University, priority 2022, dated 2023).

Format in all cases: cell-based
The subject of assay [1] is Methicillin-resistant Staphylococcus aureus (MRSA NRS-123, USA400). Nature of the assay: MBC by plating from MIC wells. As to conditions: read-out: MBC MRSA NRS123 (USA400). From the text:
(§1) Based upon the initial results obtained, the active compounds were further screened against additional clinical isolates of methicillin-sensitive S. aureus (MSSA), methicillin-resistant S. aureus (MRSA), vancomycin-resistant S. aureus (VRSA), Staphylococcus epidermidis, vancomycin-resistant Enterococcus faecium (VRE), vancomycin-resistant Enterococcus faecalis (VRE) and Streptococcus pneumoniae, as presented in Table 2. Additionally, we examined whether the compounds were bacteriostatic (inhibit bacteria from growing) or bactericidal (kill bacteria) by determining the minimum bactericidal concentration (MBC). The MBC was determined by plating 5 μL from each well where no growth was present (in the MIC plates) onto tryptic soya agar plates and incubating plates at 37° C. for 24 hours. The MBC was categorized as the lowest concentration that generated a 99.9% reduction in bacterial colony-forming units (Table 3).

Assay [2] relates to Vancomycin-resistant Enterococcus fecalis ATCC-51299 (VRE ATCC-51299). Nature of the assay: MBC by plating from MIC wells. As to conditions: read-out: MBC VRE ATCC-51299.
Text: as §1

The subject of assay [3] is Methicillin-sensitive Staphylococcus aureus ATCC-6538 (MSSA ATCC-6538). Nature of the assay: MBC by plating from MIC wells. As to conditions: read-out: MBC MSSA ATCC-6538.
Text: as §1

Assay [4] concerns Vancomycin-resistant Staphylococcus aureus (VRSA10). In words: MBC by plating from MIC wells. The note with it: read-out: MBC VRSA10.
Text: as §1

Assay [5] deals with Listeria monocytogenes ATCC-19111. Nature of the assay: MBC by plating from MIC wells.
Text: as §1

For assay [6], the system named is Methicillin-resistant Staphylococcus aureus NRS384 (MRSA USA300). In words: MIC broth microdilution, initial screening. As to the method:
The minimum inhibitory concentrations (MICs) of the tested compounds and control drugs (linezolid, vancomycin, gentamicin (antibiotics) and fluconazole and 5-fluorocytosine (5-FC) (antifungal drugs)) were determined using the broth microdilution method, according to guidelines outlined by the Clinical and Laboratory Standards Institute (CLSI, Clinical and Laboratory Standards Institute, Methods for antimicrobial susceptibility testing of anaerobic bacteria; approved standard, M11-A8. 8th ed., 2012; CLSI, Clinical and Laboratory Standards Institute. M27-A3 Reference Method for Broth Dilution Antifungal Susceptibility Testing of Yeasts; Approved Standard—Third Edition, Wayne, Pa., 2008) against clinically-relevant bacterial (methicillin-resistant Staphylococcus aureus (MRSA), Escherichia coli, and C. difficile strains) and fungal (Candida albicans) strains. S. aureus and E. coli were grown aerobically overnight on tryptone soy agar plates at 37° C. C. difficile was grown anaerobically on brain heart infusion supplemented agar at 37° C. for 48 hours. C. albicans was grown aerobically overnight on yeast peptone dextrose (YPD) agar plate at 35° C. Afterwards, a bacterial solution equivalent to 0.5 McFarland standard was prepared and diluted in cation-adjusted Mueller-Hinton broth (CAMHB) (for S. aureus and E. coli) to achieve a bacterial concentration of about 5×10^5 CFU/mL. C. difficile was diluted in brain heart infusion supplemented broth, supplemented with yeast extract, hemin and vitamin K to achieve a bacterial concentration of about 5×10^5 CFU/mL. C. albicans was diluted in Roswell Park Memorial Institute (RPMI 1640) medium with glutamine and without bicarbonate (GIBCO by Life Technologies, Green Island, N.Y., USA) which was buffered to pH 7.0 with 0.165 M of [3-(N-morpholino) propanesulfonic acid] (MOPS) (DOT Scientific Inc., Burton, Mich., USA) to achieve a fungal concentration of about 1.5×10^3 CFU/mL. Compounds and control drugs were added in the first row of the 96-well plates and serially diluted with the corresponding media containing bacteria. Plates were then incubated aerobically at 37° C. for 18-20 hours (for S. aureus and E. coli). C. difficile was incubated anaerobically at 37° C. for 48 hours. C. albicans was incubated aerobically at 37° C. for 24 hours.
The minimum inhibitory concentrations (MICs) of the tested compounds and control drugs; linezolid, vancomycin, gentamicin (antibiotics) and fluconazole and 5-fluorocytosine (5-FC) (antifungal drugs) were determined using the broth microdilution method, according to guidelines outlined by the Clinical and Laboratory Standards Institute (CLSI)^1, 2, 3 against clinically-relevant bacterial (methicillin-resistant Staphylococcus aureus (MRSA), Escherichia coli and Clostridium difficile strains) and fungal (Candida albicans) strain. S. aureus and E. coli were grown aerobically overnight on tryptone soy agar plates at 37° C. C. difficile was grown anaerobically on brain heart infusion supplemented agar at 37° C. for 48 hours. C. albicans was grown aerobically overnight on yeast peptone dextrose (YPD) agar plate at 35° C. Afterwards, a bacterial solution equivalent to 0.5 McFarland standard was prepared and diluted in cation-adjusted Mueller-Hinton broth (CAMHB) (for S. aureus and E. coli) to achieve a bacterial concentration of about 5×10^5 CFU/mL. C. difficile was diluted in brain heart infusion supplemented broth, supplemented with yeast extract, hemin and vitamin K to achieve a bacterial concentration of about 5×10^5 CFU/mL. C. albicans was diluted in Roswell Park Memorial Institute (RPMI 1640) medium with glutamine and without bicarbonate (GIBCO by Life Technologies, Green Island, N.Y., USA) which was buffered to pH 7.0 with 0.165 M of [3-(N-morpholino) propanesulfonic acid]

[7] abbreviates: ATCC19111, 99.9% reduction in CFU, read-out: MBC L. monocytogenes ATCC-19111.
[8] abbreviates: MRSA NRS384 (USA300), broth microdilution, 18-20 hours, read-out: minimum inhibitory concentration (MIC) S. aureus (MRSA USA300).
Setting [9] is: read-out: minimum inhibitory concentration (MIC) S. aureus (MRSA USA300), MRSA NRS384 (USA300), broth microdilution, 18-20 hours.

In brackets after ≈: the same amount, converted by molar mass. Read-outs that look alike come from different tables or passages of the source.

The term MBC denotes the smallest concentration meeting the test's criterion for killing. Regarding `CN[C@H](CC(C)C)C(=O)N[C@H]1C(=O)N[C@@H](CC(N)=O)C(=O)N[C@H]2C(=O)N[C@H]3C(=O)N[C@H](C(=O)N[C@H](C(=O)O)c4cc(O)cc(O)c4-c4cc3ccc4O)[C@H](O)c3ccc(c(Cl)c3)Oc3cc2cc(c3O[C@@H]2O[C@H](CO)[C@@H](O)[C@H](O)[C@H]2O[C@H]2C[C@](C)(N)[C@H](O)[C@H](C)O2)Oc2ccc(cc2Cl)[C@H]1O` [Vancomycin, reference compound], the MBC in assay [1] is 2 µg/mL (≈ 1.38 µM); in assay [2], 64 µg/mL (≈ 44.2 µM); in assay [3], 2 µg/mL (≈ 1.38 µM); in assay [4], > 64 µg/mL; in assay [5] (ATCC19111, read-out: MBC L. monocytogenes ATCC-19111) it was 2 µg/mL (≈ 1.38 µM). The MIC in assay [6] (read-out: minimum inhibitory concentration (MIC) S. aureus (MRSA USA300)) stood at 1 µg/mL (≈ 0.69 µM).

As to `CNC(=O)c1cc(Oc2ccc(NC(=O)Nc3ccc(Cl)c(C(F)(F)F)c3)cc2)ccn1` [Sorafenib, reference compound], the MBC in assay [1] (99.9% reduction in CFU), in assay [2] (99.9% reduction in CFU), in assay [3] (99.9% reduction in CFU), in assay [4] (99.9% reduction in CFU) and in assay [5] (setting [7]) was > 64 µg/mL each time. The MIC in assay [6] (setting [8]) is 4 µg/mL (≈ 8.61 µM).

As for `O=C(Nc1ccc(-c2ccc(=O)[nH]n2)cc1)Nc1ccc(Cl)c(Cl)c1` [MY21, 1-(3,4-dichlorophenyl)-3-(4-(6-oxo-1,6-dihydropyridazin-3-yl)phenyl)urea], the minimal bactericidal concentration (MBC) in assay [1] (99.9% reduction in CFU) came to 8 µg/mL (≈ 21.3 µM); in assay [2] (99.9% reduction in CFU), 16 µg/mL (≈ 42.6 µM); in assay [3] (99.9% reduction in CFU), 4 µg/mL (≈ 10.7 µM); in assay [4] (99.9% reduction in CFU), 2 µg/mL (≈ 5.33 µM); in assay [5] (setting [7]), 0.5 µg/mL (≈ 1.33 µM). Further, in assay [6] (setting [9]), the MIC is 0.5 to 1 µg/mL (≈ 1.33 to 2.67 µM).

As for `CC(=O)NC[C@H]1CN(c2ccc(N3CCOCC3)c(F)c2)C(=O)O1` [Linezolid, reference compound], the minimum bactericidal concentration (MBC) is 64 µg/mL (≈ 190 µM) in assay [1] (99.9% reduction in CFU); 16 µg/mL (≈ 47.4 µM) in assay [2] (99.9% reduction in CFU); 8 µg/mL (≈ 23.7 µM) in assay [3] (99.9% reduction in CFU); > 64 µg/mL in assay [4] (99.9% reduction in CFU); 32 µg/mL (≈ 94.9 µM) in assay [5] (setting [7]). Moreover, in assay [6] (setting [8]), the MIC came to 1 µg/mL (≈ 2.96 µM).

Regarding `O=C(Nc1ccc(Oc2ccc(=O)[nH]n2)cc1)Nc1ccc(Cl)c(C(F)(F)F)c1` [MY31, 1-(4-chloro-3-(trifluoromethyl)phenyl)-3-(4-((6-oxo-1,6-dihydropyridazin-3-yl)oxy)phenyl)urea], the MBC in assay [1] (99.9% reduction in CFU), in assay [2] (99.9% reduction in CFU), in assay [3] (99.9% reduction in CFU), in assay [4] (99.9% reduction in CFU) and in assay [5] (setting [7]) was > 64 µg/mL in each case. For the same compound, the MIC in assay [6] (setting [9]) lay in the range of 0.5 to 1 µg/mL (≈ 1.18 to 2.35 µM).

Take `O=C(Nc1ccc(Oc2ccc(=O)[nH]n2)cc1)Nc1ccc(Cl)c(Cl)c1` [MY24, 1-(3,4-dichlorophenyl)-3-(4-((6-oxo-1,6-dihydropyridazin-3-yl)oxy)phenyl)urea]: the MBC in assay [1] (99.9% reduction in CFU) is > 64 µg/mL; in assay [2] (99.9% reduction in CFU), > 64 µg/mL; in assay [3] (99.9% reduction in CFU) it was > 64 µg/mL; in assay [4] (99.9% reduction in CFU), > 64 µg/mL; in assay [5] (setting [7]), 64 µg/mL (≈ 164 µM). In addition, the MIC in assay [6] (setting [9]) fell in the range of 0.5 to 1 µg/mL (≈ 1.28 to 2.56 µM).

In the case of `O=C(Nc1cccc(Nc2ccc(Cl)nn2)c1)Nc1ccc(Cl)c(Cl)c1` [MY14, 1-(3-((6-chloropyridazin-3-yl)amino)phenyl)-3-(3,4-dichlorophenyl)urea], the MBC in assay [1] (99.9% reduction in CFU) is 8 µg/mL (≈ 19.6 µM); in assay [2] (99.9% reduction in CFU) it was > 64 µg/mL; in assay [3] (99.9% reduction in CFU) it was 32 µg/mL (≈ 78.3 µM); in assay [4] (99.9% reduction in CFU), 8 µg/mL (≈ 19.6 µM); in assay [5] (setting [7]) it was > 64 µg/mL.
